Laboratory results reported in patent US20180103845A1, “METHOD FOR ASSESSING IRRITANCY TO BIOLOGICAL SAMPLES” (OLYMPUS CORPORATION, priority 2016, published 2018).

System: human skin models based on SkinEthic RHE
Assay: Skin irritation test on three-dimensional human skin model (TG439 exposure, Nuclear-ID live/dead nuclear fluorescence, 3D confocal imaging)
Procedure: As such a biological sample 1, a three-dimensional human skin model approved in the OECD Testing Guidelines (TG) 439 (In Vitro Skin Irritation: Reconstructed Human Epidermis Test Method), such as SkinEthic RHE (manufactured by SkinEthic, France) having a thickness of about 100 μm, is favorably used. […] For irritancy assessment, dermal tissue may be contained in addition to the epidermis.
The chemical treatment step S1 is carried out in accordance with TG439. […]
Next, in the fluorescence labeling step S2, the nuclei of the cells in the biological tissues are fluorescence-labeled with a predetermined fluorescent marker. For fluorescence labeling, for example, a first fluorescent dye that specifically labels the nuclei of living cells, and a second fluorescent dye that emits fluorescence of a wavelength different from that of the first fluorescent dye and that specifically labels the nuclei of dead cells are used. […]
Next, in the image acquisition step S3, fluorescence images of the nuclei of living cells and the nuclei of dead cells at different depth positions in the biological sample are acquired using a fluorescence microscope.
FIGS. 5 and 6 show fluorescence images of biological samples exposed to 1% and 10% Triton-X, respectively. […] FIGS. 9 and 10 show fluorescence images of biological samples exposed to PBS and a 5% SDS solution, as controls. […]

## CCCCCCCCCCCCOS(=O)(=O)[O-].[Na+] [SDS, sodium dodecyl sulphate]
Human skin model exposed to 5% SDS solution, positive control (FIG. 10)
  structures such as the nuclei of dead cells: disrupted

## Triton-X
Human skin model exposed to 1% and 10% chemical (FIGS. 5 to 8), 42 min exposure, 42 h culture per TG439
  three-dimensional structures of cells, such as the nuclei: preserved
